Experiment [1] relates to GDF8 signaling (GDF pSMAD, MPC11). The experiment is described as follows: AlphaScreen SureFire SMAD3 (p-Ser423/425) assay, inhibition of GDF8 signaling. The format is cell-based. The note with it: Mus musculus, MPC-11, p-SMAD-3 (Ser423/425) in cell lysate after GDF8 stimulation.
Experiment [2] concerns TGF-β signaling (TGF-β pSMAD, MPC-11). The experiment is described as follows: AlphaScreen SureFire SMAD3 (p-Ser423/425) assay, inhibition of TGF-β signaling. The class given is cell-based. To be noted: Mus musculus, p-SMAD-3 (Ser423/425) in cell lysate after TGF-β stimulation. In outline:
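Phosphorylation of endogenous SMAD-3 at Ser423/425 was quantified with an AlphaScreen SureFire assay. Cells were exposed to compound for about 10 minutes, stimulated with TGF-β, and lysed in 1× Lysis Buffer. Lysate (5 μL) was combined with Reaction/Activation buffer plus Acceptor beads for 2 hours, then Donor beads for 1½ hours, and read on a plate reader.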

As to `Fc1cc(F)c(-c2nn3c(c2-c2ccc4ncsc4c2)CCC3)cc1F` [Compound 116, 6-(2-(2,4,5-Trifluorophenyl)-5,6-dihydro-4H-pyrrolo[1,2-b]pyrazol-3-yl)benzo[d]thiazole], the figures for the IC50 in experiment [1] and in experiment [2] were 27.6 nM and 186 nM, respectively.

As for `Fc1cc(F)c(-c2nn3c(c2-c2ccc4ncccc4c2)CCC3)cc1F` [Compound 117, 6-(2-(2,4,5-Trifluorophenyl)-5,6-dihydro-4H-pyrrolo[1,2-b]pyrazol-3-yl)quinoline], the IC50 in experiment [1] stood at 156 nM; in experiment [2], 1490 nM.

As to `Fc1cc(F)c(-c2nn3c(c2-c2ccc4nccnc4c2)CCC3)cc1F` [Compound 118, 6-(2-(2,4,5-Trifluorophenyl)-5,6-dihydro-4H-pyrrolo[1,2-b]pyrazol-3-yl)quinoxaline], the IC50 in experiment [1] stood at 98.5 nM; in experiment [2] it was 659 nM.

With `Fc1cc(F)c(-c2nn3c(c2-c2ccc4ncnn4c2)CCC3)cc1F` [Compound 119, 6-(2-(2,4,5-Trifluorophenyl)-5,6-dihydro-4H-pyrrolo[1,2-b]pyrazol-3-yl)-[1,2,4]triazolo[1,5-a]pyridine], the IC50 in experiment [1] stood at 30.9 nM; in experiment [2], 141 nM.

For the compound `Clc1ccccc1-c1nn2c(c1-c1ccc3ncsc3c1)CCC2` [Compound 120, 6-(2-(2-Chlorophenyl)-5,6-dihydro-4H-pyrrolo[1,2-b]pyrazol-3-yl)benzo[d]thiazole], the IC50 in experiment [1] was 872 nM; in experiment [2], 5560 nM.

Take `Clc1ccccc1-c1nn2c(c1-c1ccc3ncnn3c1)CCC2` [Compound 121, 6-(2-(2-Chlorophenyl)-5,6-dihydro-4H-pyrrolo[1,2-b]pyrazol-3-yl)-[1,2,4]triazolo[1,5-a]pyridine]: the results for the IC50 in experiment [1] and in experiment [2] were 340 nM and 949 nM, respectively.

Regarding `FC(F)(F)Oc1cccc(-c2nn3c(c2-c2ccc4[nH]ncc4c2)CCC3)c1` [Compound 122, 5-(2-(3-Trifluoromethoxyphenyl)-5,6-dihydro-4H-pyrrolo[1,2-b]pyrazol-3-yl)-1H-indazole], the IC50 in experiment [1] worked out at 67.5 nM; in experiment [2], 77.4 nM.

As to `FC(F)(F)Oc1cccc(-c2nn3c(c2-c2ccc4cn[nH]c4c2)CCC3)c1` [Compound 123, 6-(2-(3-Trifluoromethoxyphenyl)-5,6-dihydro-4H-pyrrolo[1,2-b]pyrazol-3-yl)-1H-indazole], the IC50 stood at 85.3 nM in experiment [1] and 190 nM in experiment [2].

As to `FC(F)(F)Oc1cccc(-c2nn3c(c2-c2ccc4nccn4c2)CCC3)c1` [Compound 124, 6-(2-(3-Trifluoromethoxyphenyl)-5,6-dihydro-4H-pyrrolo[1,2-b]pyrazol-3-yl)imidazo[1,2-a]pyridine], the IC50 in experiment [1] was 53.7 nM; in experiment [2], 45.9 nM.

Take `FC(F)(F)Oc1cccc(-c2nn3c(c2-c2ccc4ncsc4c2)CCC3)c1` [Compound 125, 6-(2-(3-Trifluoromethoxyphenyl)-5,6-dihydro-4H-pyrrolo[1,2-b]pyrazol-3-yl)benzo[d]thiazole]: the IC50 in experiment [1] was 160 nM; in experiment [2], 124 nM.

As to `FC(F)(F)Oc1cccc(-c2nn3c(c2-c2ccc4nccnc4c2)CCC3)c1` [Compound 126, 6-(2-(3-Trifluoromethoxyphenyl)-5,6-dihydro-4H-pyrrolo[1,2-b]pyrazol-3-yl)quinoxaline], the IC50 in experiment [1] amounted to 156 nM; in experiment [2] it was 222 nM.

Take `FC(F)(F)Oc1cccc(-c2nn3c(c2-c2ccc4ncnn4c2)CCC3)c1` [Compound 127, 6-(2-(3-Trifluoromethoxyphenyl)-5,6-dihydro-4H-pyrrolo[1,2-b]pyrazol-3-yl)-[1,2,4]triazolo[1,5-a]pyridine]: the IC50 in experiment [1] was found to be 36.2 nM; in experiment [2], 70.8 nM.

Take `FC(F)(F)Oc1cccc(-c2nn3c(c2-c2ccc4sncc4c2)CCC3)c1` [Compound 128, 5-(2-(3-Trifluoromethoxyphenyl)-5,6-dihydro-4H-pyrrolo[1,2-b]pyrazol-3-yl)benzo[d]isothiazole]: the IC50 in experiment [1] was 439 nM; in experiment [2], 677 nM.

For the compound `Fc1ccc(-c2nn3c(c2-c2ccc4cn[nH]c4c2)CCC3)c(F)c1F` [Compound 129, 6-(2-(2,3,4-Trifluorophenyl)-5,6-dihydro-4H-pyrrolo[1,2-b]pyrazol-3-yl)-1H-indazole], the results for the IC50 in experiment [1] and in experiment [2] were 346 nM and 1640 nM, respectively.

Consider `Fc1ccc(-c2nn3c(c2-c2ccc4nccn4c2)CCC3)c(F)c1F` [Compound 130, 6-(2-(2,3,4-Trifluoropehnyl)-5,6-dihydro-4H-pyrrolo[1,2-b]pyrazol-3-yl)imidazo[1,2-a]pyridine], for which the IC50 in experiment [1] was 319 nM; in experiment [2], 1400 nM.

For `Fc1ccc(-c2nn3c(c2-c2ccc4ncsc4c2)CCC3)c(F)c1F` [Compound 131, 6-(2-(2,3,4-Trifluorophenyl)-5,6-dihydro-4H-pyrrolo[1,2-b]pyrazol-3-yl)benzo[d]thiazole], the IC50 turned out to be 286 nM in experiment [1] and 946 nM in experiment [2].

As for `Fc1ccc(-c2nn3c(c2-c2ccc4nccnc4c2)CCC3)c(F)c1F` [Compound 132, 6-(2-(2,3,4-Trifluorophenyl)-5,6-dihydro-4H-pyrrolo[1,2-b]pyrazol-3-yl)quinoxaline], the IC50 was determined as 910 nM in experiment [1] and 2340 nM in experiment [2].

For the compound `Fc1ccc(-c2nn3c(c2-c2ccc4ncnn4c2)CCC3)c(F)c1F` [Compound 133, 6-(2-(2,3,4-Trifluorophenyl)-5,6-dihydro-4H-pyrrolo[1,2-b]pyrazol-3-yl)-[1,2,4]triazolo[1,5-a]pyridine], the IC50 in experiment [1] was found to be 247 nM; in experiment [2] it was 701 nM.

For `Fc1ccccc1-c1nn2c(c1-c1ccc3cn[nH]c3c1)CCC2` [Compound 134, 6-(2-(2-Fluorophenyl)-5,6-dihydro-4H-pyrrolo[1,2-b]pyrazol-3-yl)-1H-indazole], the results for the IC50 in experiment [1] and in experiment [2] were 901 nM and 6060 nM, respectively.

With `Fc1ccccc1-c1nn2c(c1-c1ccc3nccn3c1)CCC2` [Compound 135, 6-(2-(2-Fluorophenyl)-5,6-dihydro-4H-pyrrolo[1,2-b]pyrazol-3-yl)imidazo[1,2-a]pyridine], the IC50 is 924 nM in experiment [1] and 2150 nM in experiment [2].

On to `Fc1ccccc1-c1nn2c(c1-c1ccc3nccnc3c1)CCC2` [Compound 136, 6-(2-(2-Fluorophenyl)-5,6-dihydro-4H-pyrrolo[1,2-b]pyrazol-3-yl)quinoxaline], for which the IC50 turned out to be 613 nM in experiment [1] and 2360 nM in experiment [2].

Take `Fc1ccccc1-c1nn2c(c1-c1ccc3ncnn3c1)CCC2` [Compound 137, 6-(2-(2-Fluorophenyl)-5,6-dihydro-4H-pyrrolo[1,2-b]pyrazol-3-yl)-[1,2,4]triazolo[1,5-a]pyridine]: the IC50 in experiment [1] came out at 144 nM; in experiment [2], 660 nM.

Regarding `Fc1c(Cl)cccc1-c1nn2c(c1-c1ccc3[nH]ncc3c1)CCC2` [Compound 138, 5-(2-(3-Chloro-2-fluorophenyl)-5,6-dihydro-4H-pyrrolo[1,2-b]pyrazol-3-yl)-1H-indazole], the IC50 in experiment [1] amounted to 731 nM; in experiment [2], 1470 nM.

Regarding `Fc1c(Cl)cccc1-c1nn2c(c1-c1ccc3nccn3c1)CCC2` [Compound 139, 6-(2-(3-Chloro-2-fluorophenyl)-5,6-dihydro-4H-pyrrolo[1,2-b]pyrazol-3-yl)imidazo[1,2-a]pyridine], the figures for the half-maximal inhibitory concentration (IC50) in experiment [1] and in experiment [2] were 359 nM and 874 nM, respectively.

As for `Fc1c(Cl)cccc1-c1nn2c(c1-c1ccc3ncsc3c1)CCC2` [Compound 140, 6-(2-(3-Chloro-2-fluorophenyl)-5,6-dihydro-4H-pyrrolo[1,2-b]pyrazol-3-yl)benzo[d]thiazole], the IC50 in experiment [1] turned out to be 504 nM; in experiment [2], 842 nM.

For `Fc1c(Cl)cccc1-c1nn2c(c1-c1ccc3ncnn3c1)CCC2` [Compound 141, 6-(2-(3-Chloro-2-fluorophenyl)-5,6-dihydro-4H-pyrrolo[1,2-b]pyrazol-3-yl)-[1,2,4]triazolo[1,5-a]pyridine], the results for the IC50 in experiment [1] and in experiment [2] were 208 nM and 703 nM, respectively.

`Fc1ccc(-c2nn3c(c2-c2ccc4[nH]ncc4c2)CCC3)cc1Cl` [Compound 142, 5-(2-(3-Chloro-4-fluorophenyl)-5,6-dihydro-4H-pyrrolo[1,2-b]pyrazol-3-yl)-1H-indazole]: the values for the IC50 in experiment [1] and in experiment [2] were 153 nM and 344 nM, respectively.

On to `Fc1ccc(-c2nn3c(c2-c2ccc4cn[nH]c4c2)CCC3)cc1Cl` [Compound 143, 6-(2-(3-Chloro-4-fluorophenyl)-5,6-dihydro-4H-pyrrolo[1,2-b]pyrazol-3-yl)-1H-indazole], for which the IC50 in experiment [1] was 221 nM; in experiment [2] it was 512 nM.

As for `Fc1ccc(-c2nn3c(c2-c2ccc4nccn4c2)CCC3)cc1Cl` [Compound 144, 6-(2-(3-Chloro-4-fluorophenyl)-5,6-dihydro-4H-pyrrolo[1,2-b]pyrazol-3-yl)imidazo[1,2-a]pyridine], the IC50 turned out to be 100 nM in experiment [1] and 343 nM in experiment [2].

As to `Fc1ccc(-c2nn3c(c2-c2ccc4ncsc4c2)CCC3)cc1Cl` [Compound 145, 6-(2-(3-Chloro-4-fluorophenyl)-5,6-dihydro-4H-pyrrolo[1,2-b]pyrazol-3-yl)benzo[d]thiazole], the IC50 in experiment [1] was determined as 194 nM; in experiment [2] it was 572 nM.

As for `Fc1ccc(-c2nn3c(c2-c2ccc4ncccc4c2)CCC3)cc1Cl` [Compound 146, 6-(2-(3-Chloro-4-fluorophenyl)-5,6-dihydro-4H-pyrrolo[1,2-b]pyrazol-3-yl)quinoline], the values for the IC50 in experiment [1] and in experiment [2] were 1040 nM and 2730 nM, respectively.

Take `Fc1ccc(-c2nn3c(c2-c2ccc4nccnc4c2)CCC3)cc1Cl` [Compound 147, 6-(2-(3-Chloro-4-fluorophenyl)-5,6-dihydro-4H-pyrrolo[1,2-b]pyrazol-3-yl)quinoxaline]: the IC50 amounted to 204 nM in experiment [1] and 687 nM in experiment [2].

For the origin of these results see patent US10822337B2, “TGF-β inhibitorC” (Rigel Pharmaceuticals, Inc., priority 2015, dated 2020).
